Here are results for one compound from article PMC6017062, “Probing the Inhibitor versus Chaperone Properties of sp^2-Iminosugars towards Human β-Glucocerebrosidase: A Picomolar Chaperone for Gaucher Disease” (Molecules : A Journal of Synthetic Chemistry and Natural …, 2018).

For one assay, the target named is T1, N188S/G183W mutant GCase (Homo sapiens, UniProt P04062, N227S).
T1 construct: endogenous in cells; host or cells: skin fibroblasts of N188S/G183W type 3 Gaucher patients
T1 sequence (P04062 40-536 N227S): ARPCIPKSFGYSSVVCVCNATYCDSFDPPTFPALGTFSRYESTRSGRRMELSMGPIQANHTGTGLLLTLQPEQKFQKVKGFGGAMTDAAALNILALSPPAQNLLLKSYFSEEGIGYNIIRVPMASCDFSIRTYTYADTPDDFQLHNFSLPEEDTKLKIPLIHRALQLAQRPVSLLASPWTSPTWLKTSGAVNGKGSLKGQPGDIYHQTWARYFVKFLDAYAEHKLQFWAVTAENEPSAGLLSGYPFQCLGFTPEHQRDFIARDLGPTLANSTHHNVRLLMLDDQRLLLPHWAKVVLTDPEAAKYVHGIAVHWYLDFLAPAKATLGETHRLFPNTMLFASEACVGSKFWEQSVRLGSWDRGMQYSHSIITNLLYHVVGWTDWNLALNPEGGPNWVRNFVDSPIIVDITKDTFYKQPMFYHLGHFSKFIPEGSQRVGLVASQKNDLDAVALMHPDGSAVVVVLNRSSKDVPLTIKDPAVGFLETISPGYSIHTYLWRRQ
Briefly: Chaperone test in N188S/G183W type 3 Gaucher patient fibroblasts. In kind it is cell-based. From the text:
To test the chaperoning capabilities, Gaucher fibroblasts from patients hosting the adult neuronopathic (type 3) Gaucher disease-associated N188S/G183W mutant GCase were employed. It is worth mentioning that the neuronopathic clinical subtypes of Gaucher disease remain currently at orphan status, given the inability of the recombinant enzyme used in enzyme replacement therapy or the glucosylceramide synthase inhibitor Zavesca® used in substrate reduction therapy to cross the blood–brain barrier. This mutation is located in the catalytic domain (domain III) of GCase and has been previously found to be responsive to sp^2-iminosugar-type chaperones. […] Yet, the activity trend as a function of the chaperone concentration was starkly different between them. Thus, the nonreducing representatives 3 and 4 reached the maximum chaperoning effect at 200 nM and as low as 2 nM concentration, respectively, as compared with 20 and 2 μM for the reducing homologues 1 and 2.
(§1) Normal and Gaucher disease patients’ skin fibroblasts were cultured in Dulbecco modified Eagle’s medium (WAKO, Richmond, VA, USA) supplemented with 10% fetal bovine serum (Nichirei Biosci. Inc., Tokyo, Japan) at 37 °C in 5% CO2. For measurement of chaperone activities, fibroblasts were plated onto 35 mm dishes at 50,000 cells per dish. After 24 h incubation, the medium with the indicated concentrations of compound was applied and cells were cultured for 96 h. Then, the lysates in 0.1% Triton-X100/distilled H2O were collected from the cells and assayed for lysosomal GCase as described above. To measure the cytotoxic effect of the compounds, normal human fibroblasts were plated onto 35 mm dishes at 15,000 cells per dish and incubated overnight. Then, the medium was changed with or without compounds. After 24 h incubation, the supernatant of the cells was collected and measured by the lactate dehydrogenase assay (WAKO, Richmond, VA, USA). All the cell lines used were tested for mycoplasma contamination before conducting the chaperone and toxicity assays.

The next assay deals with T2, isomaltase (α-Glcase2) (Saccharomyces cerevisiae, UniProt P53051).
T2 construct: purchased
T2 sequence (P53051 whole entry): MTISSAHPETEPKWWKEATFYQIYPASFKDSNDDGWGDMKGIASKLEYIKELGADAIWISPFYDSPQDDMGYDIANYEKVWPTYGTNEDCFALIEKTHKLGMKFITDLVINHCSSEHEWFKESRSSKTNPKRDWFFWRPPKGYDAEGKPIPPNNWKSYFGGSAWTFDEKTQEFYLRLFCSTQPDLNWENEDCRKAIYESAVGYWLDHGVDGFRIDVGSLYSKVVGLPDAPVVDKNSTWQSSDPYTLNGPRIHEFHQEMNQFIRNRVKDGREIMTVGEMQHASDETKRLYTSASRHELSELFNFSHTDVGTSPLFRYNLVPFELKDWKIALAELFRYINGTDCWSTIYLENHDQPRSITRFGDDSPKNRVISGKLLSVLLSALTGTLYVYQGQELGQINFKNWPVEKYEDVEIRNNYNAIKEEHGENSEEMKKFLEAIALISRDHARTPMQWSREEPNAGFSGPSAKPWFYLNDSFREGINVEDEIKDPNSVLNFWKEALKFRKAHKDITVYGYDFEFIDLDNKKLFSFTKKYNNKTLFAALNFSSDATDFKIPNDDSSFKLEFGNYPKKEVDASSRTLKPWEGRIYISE
In words: Commercial glycosidase inhibition: isomaltase (α-Glcase2). In kind it is biochemical. As to conditions: mean ± SD, three determinations; competitive; n.i. = no inhibition detected at 1 mM. From the text: (§2) We first evaluated the inhibitory properties of the new nonreducing mono- and bicyclic sp^2-iminosugars 4–15 against a panel of commercial glycosidases that included the α-glucosidases maltase (yeast maltase; α-Glcase1) and isomaltase (α-Glcase2) from Saccharomyces cerevisiae and amyloglucosidase (α-Glcase3) from Aspergillus niger, the β-glucosidases from almonds (β-Glcase1) and bovine liver (β-Glcase2), the α-galactosidase from green coffee beans (α-Galase), the β-galactosidase from Escherichia coli (β-Galase), and the α-mannosidase from Jack bean (α-Manase).
Inhibition constant (Ki) values were determined by spectrophotometrically measuring the residual hydrolytic activities of the glycosidases against the respective o- (for β-galactosidase from E. coli) or p-nitrophenyl α- or β-D-glycopyranoside (for other glycosidases) in the presence of the iminosugars. Each assay was performed in phosphate buffer or phosphate-citrate buffer (for α- or β-mannosidase and amyloglucosidase) at the optimal pH for the enzymes. The reactions were initiated by addition of the enzyme to a solution of the substrate in the absence or presence of various inhibitor concentrations. The mixture was incubated for 10–30 min at 37 °C or 55 °C (for amyloglucosidase) and the reaction was quenched by addition of 1 M Na2CO3. Reaction times were appropriate to obtain 10–20% conversion of the substrate in order to achieve linear rates. The absorbance of the resulting mixture was determined at 405 nm. Approximate value of Ki was determined from the slope of Dixon plots using a fixed concentration of substrate (around the Km value for the different glycosidases) and various concentrations of inhibitor. Full Ki determinations and enzyme inhibition mode were determined from the slope of Lineweaver–Burk plots and double reciprocal analysis.

The target in a further assay is T3, GCase (Homo sapiens, UniProt P04062).
T3 construct: endogenous in cells; host or cells: normal human skin fibroblasts
T3 sequence (P04062 40-536): T1 sequence (P04062 40-536 N227S) with S188N
Briefly: GCase activity in cultured healthy human fibroblasts. In kind it is cell-based. As to the method:
For that purpose, cells were cultured for 5 days in the absence and in the presence of various concentrations of the compounds, then lysed, and the enzyme activity was determined using 4-methylumbelliferyl β-D-glucopyranoside as substrate. Higher GCase activities in the lysate indicate that larger amounts of the protein are present and that it is functional.
as §1

In assay [1] the test system is β-glucosidases (almonds/bovine enzymes). As to conditions: 4 compared with its DIJ epimer 7.
Source text: as §2
Inhibition constant (Ki) values were determined by spectrophotometrically measuring the residual hydrolytic activities of the glycosidases against the respective o- (for β-galactosidase from E. coli) or p-nitrophenyl α- or β-D-glycopyranoside (for other glycosidases) in the presence of the iminosugars. […] The absorbance of the resulting mixture was determined at 405 nm. Approximate value of Ki was determined from the slope of Dixon plots using a fixed concentration of substrate (around the Km value for the different glycosidases) and various concentrations of inhibitor. Full Ki determinations and enzyme inhibition mode were determined from the slope of Lineweaver–Burk plots and double reciprocal analysis.

[2] abbreviates: N188S/G183W Gaucher fibroblasts.

Where a chain is given by its changes, count along the chain named.

`CCCCCCCCN=C1SCC2C(O)C(O)C(O)CN12` (stereo not drawn) [Compound 4, 1-Deoxy-6-thio-5-N,6-S-(N′-octyliminomethylidene)nojirimycin]: the “N188S/G183W GCase activity enhancement at 20 pM” value on N188S/G183W mutant GCase (20 pM, patient fibroblasts) is recorded as “over 70%”. Besides, on N188S/G183W mutant GCase (2 nM, patient fibroblasts), the “N188S/G183W GCase activity enhancement at 2 nM” value is given as 300%. Moreover, at N188S/G183W mutant GCase (setting [2]), the “concentration of maximum chaperoning effect” value came to 2 nM and the “concentration over which chaperone/inhibitor balance is unfavorable (net decrease in mutant enzyme activity vs control)” value was > 0.2 µM. Also, the “Ki α-Glcase2” value on isomaltase (α-Glcase2) was “n.i”. At GCase, the “GCase activity in lysates of healthy human fibroblasts at higher concentrations” value is given as “significantly inhibited”. Also, the “GCase activity in lysates of healthy human fibroblasts at 20 μM” value at GCase (20 μM, 5 days culture) was “virtually full inhibition”. In addition, in assay [1], the “fold stronger inhibition potency towards the β-glucosidases” value was 100 fold.
